Assay: xn = mol fraction of the nth substance listed
Details: Liquid; for mass density: Vibrating tube method; for viscosity: Capillary tube (Ostwald / Ubbelohde) method

CCO [ethanol] + O
Details	mass density, 20000 kPa [kg/m3]	mass density, 30000 kPa [kg/m3]	mass density, 40000 kPa [kg/m3]	viscosity, 20000 kPa [mPa·s]	viscosity, 30000 kPa [mPa·s]	viscosity, 40000 kPa [mPa·s]
573.2 K, x1 = 0.1	–	674.8	694.9	–	–	0.093
573.2 K, x1 = 0.2	–	621.4	647.6	–	–	0.091
573.2 K, x1 = 0.3	–	582.5	614	–	–	0.089
573.2 K, x1 = 0.4	–	553.5	587.9	–	–	0.085
573.2 K, x1 = 0.6	–	517.6	557.4	–	–	0.08
573.2 K, x1 = 0.8	–	499	540.4	–	–	0.078
573.2 K, x1 = 1	–	491.5	531	–	–	0.077
618.2 K, x1 = 0.1	445.3	566.3	610.3	0.054	0.072	0.081
618.2 K, x1 = 0.2	281.3	501.5	561	0.035	0.065	0.076
618.2 K, x1 = 0.3	250.4	460.9	529.3	0.031	0.059	0.073
618.2 K, x1 = 0.4	253.1	437.4	509.1	0.032	0.057	0.07
618.2 K, x1 = 0.6	270.6	420.1	488.2	0.035	0.055	0.067
618.2 K, x1 = 0.8	295	418.9	481.7	0.038	0.055	0.067
618.2 K, x1 = 1	314.6	423.8	481.2	0.039	0.055	0.067
